Data taken from patent publication US11299472B2, “Fumarate salt of (R)-3-(1-(2,3-dichloro-4-(pyrazin-2-yl)phenyl)-2,2,2- trifluoroethyl)-1-methyl-1-(1-methylpiperidin-4-yl) urea, methods of preparation, and uses thereof” (Helsinn Healthcare SA, priority 2017, dated 2022).
Values belong to the molecule of their own block, whether it stands above or below them.

Legend:
[1] = Dog pharmacokinetic study, HM04 free base vs HM04 fumarate salt (Example 9); type: in vivo, male Beagle dogs; details: for HM04 plasma concentration: 2 mg/kg oral, mean ± S.D., n=3
[2] = as above; type: in vivo, male Beagle dogs
Procedure: The pharmacokinetics of HM04 in plasma of male Beagle dogs dosed with a single oral administration of 2 mg/kg HM04 formulated in a solution of 10% DMAC, 6% Solutol, and 84% PBS using either the HM04 free base or HM04 fumarate salt were compared. A comparison of the plasma concentration of HM04 (ng/mL) over time in dogs dosed orally with HM04 free base and HM04 fumarate salt is provided in FIG. 18. Bioavailability was calculated from a dose normalized ratio of the oral mean AUC to the intravenous mean AUC (AUCpo/AUCiv×Doseiv/Dosepo).

[3] = Rat pharmacokinetic study, HM04 free base vs HM04 fumarate salt (Example 9); type: in vivo, male Sprague Dawley rats; details: 3 mg/kg oral, mean ± S.D., n=3
Procedure: The pharmacokinetics of HM04 in plasma of male Sprague Dawley rats dosed with a single oral administration of 3 mg/kg HM04 (based on the weight of the free base) formulated in a solution of 10% DMAC, 6% Solutol, and 84% PBS using either the HM04 free base or HM04 fumarate salt were compared. Blood samples were withdrawn at set time intervals and plasma concentration of HM04 was measured by LC-MS/MS. A comparison of the plasma concentration of HM04 (ng/mL) over time in rats dosed orally with HM04 free base and HM04 fumarate salt is provided in FIG. 17.

[4] = Rat pharmacokinetic study, single oral HM04 fumarate salt 3, 10, 30 mg/kg (Example 10); type: in vivo; details: male, Sprague Dawley, plasma, 3 mg/kg intravenous, four rats, read-out: mean AUC following intravenous administration
human GHSR1a receptor = biological target: T1, human GHSR1a receptor (Homo sapiens, UniProt Q92847); assay: Antagonist FLIPR assay in HEK293 cells; type: cell-based; details: HEK293 cells expressing human GHSR1a, in duplicate, HM04 tested as fumarate salt
T1 construct: expressed in transfected cells; host or cells: HEK293
Procedure: The compounds were diluted with 100% DMSO to make 30 mM stock. On the test day, serial dilutions were prepared starting from the stock solution. For the FLIPR assay: 1) 8 μl of DMSO was added to 2 μl of compound stock solution (30 mM) to produce 10 μl of 6 mM solution; half-fold serial dilutions of the 6 mM solution were produced to generate ten doses; 2) test solutions were obtained by diluting the stock solutions 1/40 in assay buffer (DMSO concentration 2.5%). […]
For the agonist and antagonist activity study, HEK293 cells stably expressing human GHSR1a receptor were used in a (FLIPR) assay. […] Fluorescence signal was detected with FLIPR at room temperature according to standard settings for 10 minutes before cells were exposed to 10 μl of 5× working concentrations of agonists (compound added by FLIPR). The fluorescence signal was detected in the subsequent 3 minutes (antagonist mode).
Data were reported as relative light units (RLUs) and analyzed using GraphPad Software Inc. version 6. The half maximal inhibitory concentration (IC50) measured for HM04 and R011 were calculated by non-linear regression analysis.

[5] = system: Snord116+/− (Het) mice and wild-type (WT) littermates; assay: Glucose tolerance in Prader-Willi mouse model; type: in vivo
Description: (§1) The effect of HM04 fumarate salt on food intake behavior and glucose tolerance was investigated in the Snord116+/−(Het) mouse genetic model of Prader-Willi syndrome (Het mouse) compared to wild-type (WT) littermates. Since D2R agonists suppress food intake, the FDA approved D2R agonist cabergoline was used as an experimental control. Phenotypic characteristics of this PWS mouse model include hyperphagia, postnatal growth retardation, high ghrelin, and low growth hormone. Ding F., et al. SnoRNA Snord116 (Pwcr1/MBII-85) deletion causes growth deficiency and hyperphagia in mice. PloS one. 2008; 3(3):e1709. These PWS mice eat more frequently than WT littermates, particularly during the light cycle and are more motivated to work for food (more level presses) (data not shown).

[6] = system: Snord116+/− (Het) mice and wild-type (WT) littermates; assay: Food intake after acute administration in Prader-Willi mouse model; type: in vivo; details: for cumulative food intake: fasted 16 hours
Description: as §1
Acute administration: Mice (3-, 7-, and 12-month-old) were fasted for 16 hours and then administered a single intraperitoneal injection of vehicle or vehicle containing HM04, cabergoline, or HM04 and cabergoline according to Table 8, below.
HM04 was dissolved in water for injection and cabergoline was dissolved in DMSO to provide a 5% DMSO/water solution for injection. Mice were then given free access to food, and cumulative food intake was measured at 1, 2, 4, 8, 12, and 24 hours post-dosing. […] Data was analyzed for significance using 2-way ANOVA, Bonferroni post hoc test (Graphpad Prism, Prism 5.0, San Diego, Calif.).

[7] = male, Beagle, plasma, 2 mg/kg oral, mean ± S.D., n=3

T1 sequence (Q92847 whole entry): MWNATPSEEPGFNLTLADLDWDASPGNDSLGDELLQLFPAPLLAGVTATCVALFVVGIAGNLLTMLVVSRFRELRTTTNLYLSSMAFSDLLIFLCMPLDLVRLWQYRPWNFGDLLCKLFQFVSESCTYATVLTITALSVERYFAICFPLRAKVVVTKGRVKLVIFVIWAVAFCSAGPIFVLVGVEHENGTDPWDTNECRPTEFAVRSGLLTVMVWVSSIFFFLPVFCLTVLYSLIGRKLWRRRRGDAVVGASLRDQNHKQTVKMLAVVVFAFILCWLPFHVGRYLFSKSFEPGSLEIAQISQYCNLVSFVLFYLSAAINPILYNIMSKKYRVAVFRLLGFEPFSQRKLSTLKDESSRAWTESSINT

- HM04 plasma concentration ([1]; 1 hour): 227.4 ± 52.2 ng/mL
- HM04 plasma concentration ([1]; 4 hours): 152.9 ± 56.9 ng/mL
- HM04 plasma concentration ([1]; 8 hours): 70.2 ± 41.0 ng/mL
- HM04 plasma concentration ([1]; 24 hours): 13.1 ± 13.2 ng/mL
- AUC ([1]; male, Beagle, plasma, 1 mg/kg intravenous, three dogs, read-out: mean AUC following intravenous administration): 1130 ± 364 ng·h/mL
- HM04 plasma concentration ([2]; 2 mg/kg oral, 0.25 hours, mean ± S.D., n=3): 86.6 ± 32.2 ng/mL
- HM04 plasma concentration ([2]; 2 mg/kg oral, 0.50 hours, mean ± S.D., n=3): 182.4 ± 24.1 ng/mL
- HM04 plasma concentration ([2]; 2 mg/kg oral, 2 hours, mean ± S.D., n=3): 219.0 ± 63.6 ng/mL
- bioavailability ([2]; male, Beagle, plasma, 2 mg/kg oral vs 1 mg/kg intravenous, dose normalized AUC ratio): 82.3 ± 36.8%
- AUC(0-t) [2, 7]: 1850 ± 828 ng·h/mL
- Cmax [2, 7]: 230 ± 57.1 ng/mL
- Tmax [2, 7]: 1.33 ± 0.58 h
- HM04 plasma concentration ([3]; 0.50 hours): 325.9 ± 187.8 ng/mL
- HM04 plasma concentration ([3]; 1 hour): 201.0 ± 38.7 ng/mL
- HM04 plasma concentration ([3]; 2 hours): 173.9 ± 12.2 ng/mL
- HM04 plasma concentration ([3]; 8 hours): 42.3 ± 2.5 ng/mL
- AUC(0-t) ([3]; male, Sprague Dawley, plasma): 970 ± 147 ng·h/mL
- Tmax ([3]; male, Sprague Dawley, plasma): 0.83 ± 0.29 h
- AUC [4]: 1760 ± 196 ng·h/mL
SMILES: CN1CCC(N(C)C(=O)N[C@H](c2ccc(-c3cnccn3)c(Cl)c2Cl)C(F)(F)F)CC1.O=C(O)/C=C/C(=O)O [HM04 fumarate salt, (R)-3-(1-(2,3-dichloro-4-(pyrazin-2-yl)phenyl)-2,2,2-trifluoroethyl)-1-methyl-1-(1-methylpiperidin-4-yl)urea fumarate salt]

- IC50 (human GHSR1a receptor): 7.31 nM
SMILES: CN1CCC(N(C)C(=O)N[C@H](c2ccc(-c3cnccn3)c(Cl)c2Cl)C(F)(F)F)CC1 [HM04, (R)-3-(1-(2,3-dichloro-4-(pyrazin-2-yl)phenyl)-2,2,2-trifluoroethyl)-1-methyl-1-(1-methylpiperidin-4-yl)urea]
- glucose tolerance ([5]; Het mice): did not show an improvement in glucose tolerance
- glucose tolerance ([5]; WT mice): an effect was observed
- cumulative food intake ([6]; 3-month-old Het mice, HM04 10 mg/kg single i.p.): significantly suppressed food intake at 12 and 24 hours post-dosing
- cumulative food intake ([6]; 3-month-old WT mice, HM04 10 mg/kg single i.p.): failed to inhibit food intake
- cumulative food intake ([6]; 7-month-old Het mice, HM04 10 mg/kg single i.p.): did not inhibit food intake
- food intake ([6]; 7-month-old Het mice, HM04 30 mg/kg single i.p.): inhibited food intake for up to 8 hours
- cumulative food intake ([6]; 7-month-old WT mice, HM04 10 mg/kg single i.p.): did not inhibit food intake
- food intake ([6]; 7-month-old WT mice, HM04 30 mg/kg single i.p.): no apparent effect on food intake
- food intake ([6]; 12-month-old Het mice, HM04 10 mg/kg single i.p., 1 hour after dosing): suppressed food intake
- food intake ([6]; 12-month-old Het mice, HM04 10 mg/kg single i.p., after 1 hour (up to 24 hours)): that level of inhibition was not maintained
- food intake ([6]; 12-month-old WT mice, HM04 10 mg/kg i.p.): did not reduce food intake
